Values of other authors in US20120225789A1, “DNA REPAIR OR BRCA1-LIKE GENE SIGNATURE” (Baylor College of Medicine, priority 2009, published 2012).

System: mammary tumors in which BRCA1 protein has been lost
Settings: mice spontaneously developing BRCA1-lost mammary tumors

SMILES | response of mice to chemotherapy
CC(=O)O[C@@]12CO[C@@H]1C[C@H](O)[C@@]1(C)C(=O)[C@H](O)C3=C(C)[C@@H](OC(=O)[C@H](O)[C@@H](NC(=O)OC(C)(C)C)c4ccccc4)C[C@@](O)([C@@H](OC(=O)c4ccccc4)[C@H]21)C3(C)C [docetaxel] | resistance
N.N.[Cl][Pt][Cl] [cisplatin] | highly sensitive
COc1cccc2c1C(=O)c1c(O)c3c(c(O)c1C2=O)C[C@@](O)(C(=O)CO)C[C@@H]3O[C@H]1C[C@H](N)[C@H](O)[C@H](C)O1 [doxorubicin] | highly sensitive
